Test results from patent publication US11865105B2, “Sphingosine pathway modulating compounds for the treatment of cancers” (Enzo Biochem, Inc., priority 2017, dated 2024).

How the values were obtained:
Huh7 cells = assay: Apoptosis/necrosis assay (flow cytometry, GFP Certified Apoptosis/Necrosis detection kit); assay type: cell-based, human; conditions: 24 hours, SK1-I 10, 20, 40 μM, ozanimod 5, 10, 20 μM, ABC294640 10, 20, 40 μM
Experimental: (§1) Apoptosis/necrosis assays evaluating the effect of different concentrations of each of ozanimod, ABC294640 and SK1-I on the four human hepatocellular carcinoma cell lines, Hep G2, Hep 3B, Huh 7 and PLC-PRF5 were also performed.
(§2) The protocol used for the apoptosis assays was: • Plated cells in 6-well plates and incubated at 37° C. overnight. • Prepared concentrations of test compound and control compound DMSO in media. • Ozanimod: 5 μM, 10 μM, and 20 μM. • ABC294640: 10 μM, 20 μM, and 40 μM. • SK1-I: 10 μM, 20 μM, and 40 μM. • Control: 0.2% DMSO. • Aspirated the medium from the 6-well plates and added test compound concentrations in media or 0.2% DMSO control in media. Incubated at 37° C. for 24 hours. • Collected and processed the cells following the flow cytometry protocol of the GFP Certified® Apoptosis/Necrosis detection kit from Enzo Life Sciences, Inc. (product no. ENZ-51002; Farmingdale, NY, USA).
(§3) FIGS. 5-16 present graphs plotting the data from these 24-hour apoptosis assays for the different concentrations of compounds and no-drug control for the various cell lines. Channel FL2 picks up the apoptosis signal and channel FL3 picks up the necrosis signal. Data points in Quadrant 3 (Q3) in the graphs corresponds to cells undergoing apoptosis (cells positive for the apoptosis detection reagent of the assay). Data points in Quadrant 2 (Q2) in the graphs corresponds to cells that are positive for the apoptosis detection reagent and positive for the necrosis detection reagent of the assay (indicative of late-stage apoptosis).

PLC-PRF5 cells = assay: as above; assay type: cell-based, human; conditions: 24 hours, SK1-I 10, 20, 40 μM, ozanimod 5, 10, 20 μM, ABC294640 10, 20, 40 μM
Experimental: as §1, §2, §3

Hep 3B cells = assay: as above; assay type: cell-based, human; conditions: 24 hours, SK1-I 10, 20, 40 μM, ozanimod 10, 20, 40 μM, ABC294640 10, 20, 40 μM
Experimental: as §1
as §2, with “[…],” for “concentrations of test compound and control compound DMSO in media. • Ozanimod: 5 μM, 10 μM, and 20 μM. • ABC294640: 10 μM,”
as §3

Hep G2 cells = assay: as above; assay type: cell-based, human; conditions: 24 hours, SK1-I 10, 20, 40 μM, ozanimod 10, 20, 40 μM, ABC294640 10, 20, 40 μM
Experimental: as §1
as §2, with “[…],” for “concentrations of test compound and control compound DMSO in media. • Ozanimod: 5 μM, 10 μM, and 20 μM. • ABC294640: 10 μM,”
as §3

[1] = test system: primary human hepatocytes; assay: Apoptosis assay on normal (non-cancerous) primary human hepatocytes; assay type: cell-based; conditions: 24 hours; SK1-I 10, 20, 40 μM; ozanimod 2.5, 5, 10 μM; any concentration tested
Experimental: In still further experiments, the effects of SK1-I and ozanimod on normal (non-cancerous) primary human hepatocytes were investigated. Fresh human hepatocytes in a 12-well plate (HUF12) were obtained from Triangle Research Labs (Durham, NC, USA; part of Lonza Group) and handled according to the supplier's protocol. The shipping medium was aspirated from each well and replaced with 1 ml per well of warm Hepatocyte Maintenance Medium. The plate was then placed in a 5% CO2 incubator at 37° C. and the hepatocytes were allowed to acclimate overnight. The Hepatocyte Maintenance Medium was replaced before treatment with drug or no-drug control, and the hepatocytes were treated with 0 μM (no-drug control), 10 μM, 20 μM, or 40 μM SK1-I or 0 μM, 2.5 μM, 5 μM, or 10 μM ozanimod for 24 hours under incubation. The cells were then harvested and analyzed using the GFP Certified® Apoptosis/Necrosis detection kit. The results are shown in FIGS. 19A-D for SK1-I and FIGS. 20A-D for ozanimod as follows.

[2] = test system: human hepatocellular carcinoma cell lines, Hep G2, Huh 7, and PLC-PRF5; assay: MTT cell viability assay (48 hours); assay type: cell-based; conditions: Hep G2, Huh 7, PLC-PRF5
Experimental: The following MTT assay protocol was followed. • Prepared stock solutions: 50 mM ozanimod, 50 mM ABC294640, 10 mM SK1-I in DMSO. • Plated 20000 cells in 160 μl medium per well in 96-well plates for each cell line and incubated at 37° C. overnight. • Prepared compound serial dilutions: for ozanimod and ABC294640: dilute stock 50 mM 1:50 in medium to 1000 μM; for SK1-I, dilute stock 10 mM 1:50 in medium to […] them make serial 1:1.8 fold serial dilution to the titration. For negative control, diluted DMSO 1:50 to medium. • Added 40 μl negative control and serially titrated compounds to 160 μl of cells for each cell line. Performed in triplicate for each cell line. • Incubated at 37° C. for 72 hours. • Performed assay using Vybrant MTT Cell Proliferation Assay kit (V-13154) (Molecular Probes) from Thermo Fisher Scientific (Waltham, MA USA).
48-hour treatment MTT assays were also performed as follows.

[3] = test system: Jurkat cells (human T-cell leukemia cell line); assay: Apoptosis assay; assay type: cell-based; conditions: SK1-I 10, 20 μM, ozanimod 5, 10 μM
Experimental: as §2, §3

Jurkat cells = assay: Cell viability effects (FIG. 21); assay type: cell-based, human; conditions: Jurkat cells without IL-2; 5 μM of each agent

Row | SMILES | induction of apoptosis (Huh7 cells) | induction of apoptosis (PLC-PRF5 cells) | induction of apoptosis (Hep 3B cells) | induction of apoptosis (Hep G2 cells) | induction of apoptosis of primary human hepatocytes [1] | killing hepatocellular carcinoma cells, compared with PF-543 [2] | induction of apoptosis [3] | cell viability (Jurkat cells)
1 | O=C(NCc1ccncc1)C12CC3C[C@H](C1)CC(c1ccc(Cl)cc1)(C3)C2 [ABC294640, (7 S)-3-(4-chlorophenyl)-N-(pyridin-4-ylmethyl)adamantane-1-carboxamide] | failed to induce apoptosis | did not substantially induce apoptosis | did not substantially induce apoptosis | failed to induce apoptosis | – | – | – | –
2 | CCCCCc1ccc(/C=C/[C@H](O)[C@@H](CO)NC)cc1 [SK1-I, (E,2R,3S)-2-(methylamino)-5-(4-pentylphenyl)pent-4-ene-1,3-diol] | strongly induced apoptosis | strongly induced apoptosis | strongly induced apoptosis | strongly induced apoptosis | did not induce apoptosis | more effective at killing hepatocellular carcinoma cells than PF-543 | strongly induced apoptosis | –
3 | CC(C)Oc1ccc(-c2nc(-c3cccc4c3CC[C@@H]4NCCO)no2)cc1C#N [ozanimod, 5-[3-[(1S)-1-(2-hydroxyethylamino)-2,3-dihydro-1H-inden-4-yl]-1,2,4-oxadiazol-5-yl]-2-propan-2-yloxybenzonitrile] | strongly induced apoptosis | strongly induced apoptosis | strongly induced apoptosis | strongly induced apoptosis | did not induce apoptosis | – | strongly induced apoptosis | strongly decreases viability
